The values below come from patent publication US20120004166A1, “ARYLOXYALKYLENE-SUBSTITUTED HYDROXYPHENYLHEXYNOIC ACIDS, PROCESS FOR PREPARATION THEREOF AND USE THEREOF AS A MEDICAMENT” (SANOFI, priority 2010, published 2012).

Molecules are shown by their SMILES.

For this experiment, the target named is T1, GPCR GPR40 (Rattus norvegicus, UniProt Q8K3T4).
T1 construct: expressed in transfected cells; host or cells: HEK293
Nature of the experiment: In vitro FLIPR assay with recombinant cells which express the GPCR GPR40. As to conditions: recombinant HEK293 cells expressing rat GPR40; agonist-induced change in intracellular Ca2+ (Fluo-4, FLIPR); 100% = 10 μM linoleic acid. It is filed as cell-based. As for the experimental part: In Vitro FLIPR Assay with Recombinant Cells which Express the GPCR GPR40
Function-testing assays were performed by means of the FLIPR technique (“Fluorescence Imaging Plate Reader”, Molecular Devices Corp.). To this end, agonist-induced changes in the intracellular concentration of Ca^2+ were determined in recombinant HEK293 cells which expressed the GPCR GPR40 (species: rat). For the studies, cells were sown into 96-well microtiter plates (60 000 cells/well) and left to grow overnight. The medium was removed and the cells were incubated in buffer which contained the fluorescent dye Fluo-4. After this loading with dye, the cells were washed, test substance was added and changes in the intracellular Ca^2+ concentration were measured in the FLIPR unit. Results were presented as the percentage change relative to the control (0%: no test substance added; 100%: 10 μM reference agonist linoleic acid added) and used to calculate dose/effect curves, and EC50 values were determined.

T1 sequence (Q8K3T4 whole entry): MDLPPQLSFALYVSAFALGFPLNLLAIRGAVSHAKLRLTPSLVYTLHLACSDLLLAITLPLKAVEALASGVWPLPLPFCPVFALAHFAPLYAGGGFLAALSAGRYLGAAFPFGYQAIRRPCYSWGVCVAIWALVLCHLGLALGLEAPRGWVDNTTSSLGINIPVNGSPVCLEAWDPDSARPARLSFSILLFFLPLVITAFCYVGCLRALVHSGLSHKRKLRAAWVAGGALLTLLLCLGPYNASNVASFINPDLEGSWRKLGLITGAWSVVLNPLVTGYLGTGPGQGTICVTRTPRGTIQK

In the case of `CC#CC(CC(=O)O)c1ccc(OCC(CC)COc2ccc(C(F)(F)F)cc2)cc1` (stereo not drawn) [Example 42, 3-{4-[2-(4-Trifluoromethylphenoxymethyl)butoxy]phenyl}hex-4-ynoic acid], the EC50 (usually the concentration that produces a half-maximal response) came to 1780 nM.

Take `CC#CC(CC(=O)O)c1ccc(OCC(CC)COc2cccc(C(C)(C)C)c2)cc1` (stereo not drawn) [Example 43, 3-{4-[2-(3-tert-Butylphenoxymethyl)butoxy]phenyl}hex-4-ynoic acid]: the EC50 amounted to 2030 nM. In the case of `CC#CC(CC(=O)O)c1ccc(OCC(CCC)COc2ccc(C(F)(F)F)cc2)cc1` (stereo not drawn) [Example 44, 3-{4-[2-(4-Trifluoromethylphenoxymethyl)pentyloxy]phenyl}hex-4-ynoic acid], the concentration for a half-maximal effect (EC50) worked out at 5100 nM. In the case of `CC#CC(CC(=O)O)c1ccc(OCC(CCC)COc2cccc(C(C)(C)C)c2)cc1` (stereo not drawn) [Example 45, 3-{4-[2-(3-tert-Butylphenoxymethyl)pentyloxy]phenyl}hex-4-ynoic acid], the EC50 stood at 6850 nM. As to `CC#CC(CC(=O)O)c1ccc(OCC(COc2ccc(C(F)(F)F)cc2)c2ccccc2)cc1` (stereo not drawn) [Example 46, 3-{4-[2-Phenyl-3-(4-trifluoromethylphenoxy)propoxy]phenyl}hex-4-ynoic acid], the EC50 stood at 8490 nM.

On to `CC#CC(CC(=O)O)c1ccc(OCC(COc2cccc(C(C)(C)C)c2)c2ccccc2)cc1` (stereo not drawn) [Example 47, 3-{4-[3-(3-tert-Butylphenoxy)-2-phenylpropoxy]phenyl}hex-4-ynoic acid], for which the EC50 came out at 8740 nM. `CC#CC(CC(=O)O)c1ccc(OCC(COc2ccc(C(F)(F)F)cc2Cl)OCc2ccccc2)cc1` (stereo not drawn) [Example 48, 3-{4-[2-Benzyloxy-3-(2-chloro-4-trifluoromethylphenoxy)propoxy]phenyl}hex-4-ynoic acid]: the EC50 stood at 7500 nM. The value for `CC#CC(CC(=O)O)c1ccc(OCC(CO)COc2ccc(C#N)c(Cl)c2)cc1` (stereo not drawn) [Example 49, 3-{4-[3-(3-Chloro-4-cyanophenoxy)-2-hydroxymethylpropoxy]phenyl}hex-4-ynoic acid] was 150 nM; that for `CC#CC(CC(=O)O)c1ccc(OCC(COC)COc2ccc(C#N)c(Cl)c2)cc1` (stereo not drawn) [Example 50, 3-{4-[3-(3-Chloro-4-cyanophenoxy)-2-methoxymethylpropoxy]phenyl}hex-4-ynoic acid] was 550 nM. Turning to `CC#CC(CC(=O)O)c1ccc(OCC(COCC2CC2)COc2ccc(C#N)c(Cl)c2)cc1` (stereo not drawn) [Example 51, 3-{4-[3-(3-Chloro-4-cyanophenoxy)-2-cyclopropylmethoxymethylpropoxy]phenyl}hex-4-ynoic acid], the EC50 was 2400 nM.

On to `CC#CC(CC(=O)O)c1ccc(OCC(O)COc2ccc(C(F)(F)F)cc2Cl)cc1` (stereo not drawn) [Example 52, 3-{4-[3-(2-Chloro-4-trifluoromethylphenoxy)-2-hydroxypropoxy]phenyl}hex-4-ynoic acid], for which the EC50 turned out to be 990 nM. The value for `CC#CC(CC(=O)O)c1ccc(OCC(COc2ccc(C(F)(F)F)cc2Cl)OC)cc1` (stereo not drawn) [Example 53, 3-{4-[3-(2-chloro-4-trifluoromethylphenoxy)-2-methoxypropoxy]phenyl}hex-4-ynoic acid] was 200 nM.
